Activity calls are given as the source filed them. The rule behind the calls is not given here.
Experiments:
[1] = Induction of ROS-mediated […] labeled Ras RNA g-quadruplex (unknown origin) degradation at 0.6 uM incubated for 30 mins followed by photoirradiation for 15 to 30 mins by PAGE analysis
[2] = Drug uptake in human PANC1 cells at 5 uM after 16 hrs by FACS analysis; assay type: ADME, cell-based; settings: panc-1, 16 h
Quadruplex DNA [3] = experiment: Binding affinity to human KRAS utr-z RNA g-quadruplex at 40 degree C by SPR analysis; assay type: nucleic-acid assay
PANC-1 [4] = experiment: Induction of apoptosis in human PANC1 cells assessed as necrotic cells at 5 nM and photoirradiated at 7.2 J/cm2 measured after 6 to 24 hrs in presence of NAC by annexin-V-propidium iodide staining based FACScalibur flow cytometry analysis (reference value: 1 %); assay type: functional
Quadruplex DNA [5] = experiment: Binding affinity to human KRAS utr-1 RNA g-quadruplex by fluorescence spectroscopy; assay type: nucleic-acid assay
[6] = Drug uptake in human PANC1 cells at 5 uM after 2 hrs by FACS analysis; assay type: ADME, cell-based; settings: panc-1, 2 h
PANC-1 [7] = experiment: Induction of apoptosis in human PANC1 cells assessed as viable cells at 15 nM and photoirradiated at 7.2 J/cm2 measured after 6 to 24 hrs by annexin-V-propidium iodide staining based FACScalibur flow cytometry analysis (reference value: 91.9 %); assay type: functional; settings: PANC-1, light or radiation study, read-out: Activity
PANC-1 [8] = experiment: Induction of apoptosis in human PANC1 cells assessed as early apoptotic cells at 15 nM and photoirradiated at 7.2 J/cm2 measured after 6 to 24 hrs by annexin-V-propidium iodide staining based FACScalibur flow cytometry analysis (reference value: 4.6 %); assay type: functional
[9] = molecular target: GTPase NRas (Homo sapiens) (UniProt P01111); experiment: Inhibition of NRAS in human PANC1 cells assessed as decrease in NRAS mRNA level at 15 nM followed by 7.2 J/cm2 irradiation after 4 hrs by qRT-PCR analysis; assay type: cell-based
PANC-1 [10] = experiment: Induction of apoptosis in human PANC1 cells assessed as necrotic cells at 10 nM and photoirradiated at 7.2 J/cm2 measured after 6 to 24 hrs by annexin-V-propidium iodide staining based FACScalibur flow cytometry analysis (reference value: 0.7 %); assay type: functional
PANC-1 [11] = experiment: Induction of apoptosis in human PANC1 cells assessed as viable cells at 10 nM and photoirradiated at 7.2 J/cm2 measured after 6 to 24 hrs by annexin-V-propidium iodide staining based FACScalibur flow cytometry analysis (reference value: 91.9 %); assay type: functional; settings: PANC-1, light or radiation study, read-out: Activity
PANC-1 [12] = experiment: Cytotoxicity against human PANC1 cells assessed as reduction in metabolic activity after 48 hrs in dark followed by photoirradiation in presence of NADH by resazurin assay; assay type: functional, cell-based; settings: PANC-1, light or radiation study
PANC-1 [13] = experiment: Induction of apoptosis in human PANC1 cells assessed as cleavage of PARP1 when photoirradiated at 7.2 J/cm2 by Western blot analysis; assay type: functional, cell-based
PANC-1 [14] = experiment: Induction of apoptosis in human PANC1 cells assessed as early apoptotic cells at 10 nM and photoirradiated at 7.2 J/cm2 measured after 6 to 24 hrs by annexin-V-propidium iodide staining based FACScalibur flow cytometry analysis (reference value: 4.6 %); assay type: functional
[15] = Induction of ROS-mediated Cys5.5 labelled utr-z RNA duplex (unknown origin) degradation at 0.6 uM incubated for 30 mins followed by photoirradiation for 15 to 30 mins by PAGE analysis
PANC-1 [16] = experiment: Cytotoxicity against human PANC1 cells assessed as reduction in metabolic activity at 20 nM after 24 to 72 hrs in dark followed by photoirradiation in presence of NADH and NAC by resazurin assay; assay type: functional, cell-based
[17] = Drug uptake in human PANC1 cells at 5 uM and 4 degree C after 16 hrs by FACS analysis relative to 37 degree C; assay type: ADME, cell-based; settings: panc-1, 16 h
PANC-1 [18] = experiment: Induction of apoptosis in human PANC1 cells assessed as early apoptotic cells at 10 nM and photoirradiated at 7.2 J/cm2 measured after 6 to 24 hrs in presence of NAC by annexin-V-propidium iodide staining based FACScalibur flow cytometry analysis (reference value: 3.1 %); assay type: functional
Quadruplex DNA [19] = experiment: Induction of ROS-mediated […] labeled Ras RNA g-quadruplex (unknown origin) degradation assessed as increase in residual RNA g-quadruplex at 0.6 uM incubated for 30 mins in presence of NAC followed by photoirradiation for 15 to 30 mins by PAGE analysis relative to control; assay type: nucleic-acid assay
MIA PaCa-2 = experiment: Cytotoxicity against human MIAPaCa2 cells harboring G12C point mutation assessed as reduction in metabolic activity after 48 hrs in dark followed by photoirradiation in presence of NADH by resazurin assay; assay type: functional, cell-based
[20] = Drug uptake in mouse NIH/3T3 cells at 5 uM and 4 degree C after 16 hrs by FACS analysis relative to 37 degree C; assay type: ADME, cell-based; settings: nih3t3, 16 h
PANC-1 [21] = experiment: Induction of apoptosis in human PANC1 cells assessed as necrotic cells at 15 nM and photoirradiated at 7.2 J/cm2 measured after 6 to 24 hrs in presence of NAC by annexin-V-propidium iodide staining based FACScalibur flow cytometry analysis (reference value: 1 %); assay type: functional
PANC-1 [22] = experiment: Induction of apoptosis in human PANC1 cells assessed as late apoptotic cells at 10 nM and photoirradiated at 7.2 J/cm2 measured after 6 to 24 hrs in presence of NAC by annexin-V-propidium iodide staining based FACScalibur flow cytometry analysis (reference value: 1.3 %); assay type: functional
Quadruplex DNA [23] = experiment: Binding affinity to NRAS RNA g-quadruplex (unknown origin) by fluorescence spectroscopy; assay type: nucleic-acid assay
Quadruplex DNA [24] = experiment: Induction of ROS-mediated […] labeled Ras RNA g-quadruplex (unknown origin) degradation assessed as residual RNA g-quadruplex at 0.6 uM incubated for 15 to 30 mins followed by photoirradiation for 30 mins by PAGE analysis relative to control; assay type: nucleic-acid assay
HEK293 = experiment: Cytotoxicity against human HEK293 cells assessed as reduction in metabolic activity after 24 to 72 hrs in dark followed by photoirradiation in presence of NADH by resazurin assay; assay type: ADME, cell-based
[25] = Binding affinity to NRAS RNA g-quadruplex (unknown origin) at 40 degree C by SPR analysis; assay type: nucleic-acid assay
Quadruplex DNA [26] = experiment: Binding affinity to human KRAS utr-z RNA g-quadruplex by fluorescence spectroscopy; assay type: nucleic-acid assay
PANC-1 [27] = experiment: Photodynamic antitumor activity against human PANC1 cells xenografted in SCID mouse assessed as reduction in tumor growth at 3 mg/kg administered intratumorally after 2 hrs photoirradiated by diode laser at 193 J/cm2 by micrometer caliper method; assay type: functional, organism-based
PANC-1 [28] = experiment: Antitumor activity against human PANC1 cells xenografted in SCID mouse assessed as reduction in tumor growth at 3 mg/kg administered intratumorally measured after 14 days by micrometer caliper method; assay type: functional, organism-based
[29] = Induction of ROS-mediated Cys5.5 labelled utr-c RNA duplex (unknown origin) degradation at 0.6 uM incubated for 30 mins followed by photoirradiation for 15 to 30 mins by PAGE analysis
[30] = Induction of ROS-mediated […] labelled 20-mer utr-c stem-loop RNA (unknown origin) degradation at 0.6 uM incubated for 30 mins followed by photoirradiation for 15 to 30 mins by PAGE analysis

Sequence of GTPase NRas (Homo sapiens) (P01111 whole entry): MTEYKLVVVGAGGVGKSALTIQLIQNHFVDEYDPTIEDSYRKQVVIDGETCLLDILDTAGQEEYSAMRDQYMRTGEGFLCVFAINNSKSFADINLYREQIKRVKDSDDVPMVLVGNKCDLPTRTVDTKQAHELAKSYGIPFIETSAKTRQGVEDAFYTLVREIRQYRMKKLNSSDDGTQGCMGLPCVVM

Which results are given for `CCCCCCCCCCCCCC[n+]1ccc(-c2c3nc(c(-c4cc[n+](C)cc4)c4ccc([nH]4)c(-c4cc[n+](C)cc4)c4nc(c(-c5cc[n+](C)cc5)c5ccc2[nH]5)C=C4)C=C3)cc1.[I-].[I-].[I-].[I-]`?
Activity [1]: Active; Drug uptake [2]: Active; Kd (Quadruplex DNA [3]): 82 to 202 nM; Activity (PANC-1 [4]): 1.2%; Kd (Quadruplex DNA [5]): 236 nM; Drug uptake [6]: Active; viability at 0.015 µM (PANC-1 [7]): 70.6%; Activity (PANC-1 [8]): 4.5%; inhibition [9]: Active; Activity (PANC-1 [10]): 2.2%; viability at 0.01 µM (PANC-1 [11]): 82.1%; EC50 (PANC-1 [12]): 13.7 nM; Activity (PANC-1 [13]): Active; Activity (PANC-1 [14]): 4.8%; Activity [15]: inactive; Activity (PANC-1 [16]): inactive; Drug uptake [17]: 24%; Activity (PANC-1 [18]): 3.7%; Activity (Quadruplex DNA [19]): 50%; Activity (MIA PaCa-2): Active; Drug uptake [20]: Active; Activity (PANC-1 [21]): 1.7%; Activity (PANC-1 [22]): 3.1%; Kd (Quadruplex DNA [23]): 107 nM; Activity (Quadruplex DNA [24]): 30%; Activity (HEK293): Non-Toxic; Kd [25]: 56 to 98 nM; Kd (Quadruplex DNA [26]): 219 nM; Activity (PANC-1 [27]): Active; Activity (PANC-1 [28]): inactive; Activity [29]: inactive; Activity [30]: inactive
